Measured values reported in article PMC3792487 (Science (New York, N.Y.), 2012).

Biological target: dihydropteroate synthase (DHPS, FolP1) (Mycobacterium tuberculosis, UniProt P9WND1)
Format: biochemical

Sequence of dihydropteroate synthase (DHPS, FolP1) (P9WND1 whole entry): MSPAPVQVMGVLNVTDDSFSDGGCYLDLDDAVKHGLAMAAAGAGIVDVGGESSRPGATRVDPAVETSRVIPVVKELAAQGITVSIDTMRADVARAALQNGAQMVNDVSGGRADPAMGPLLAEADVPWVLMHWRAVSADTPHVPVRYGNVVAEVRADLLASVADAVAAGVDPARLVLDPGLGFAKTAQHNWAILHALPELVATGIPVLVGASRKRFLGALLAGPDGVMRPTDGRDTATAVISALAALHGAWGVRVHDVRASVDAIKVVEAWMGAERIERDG

Nc1ccc(C(=O)O)c(O)c1 [PAS, para-aminosalicylic acid]
in vitro turnover assay with purified recombinant enzyme: purified recombinant enzymes confirmed that PAS was a kinetically and chemically competent substrate for M. tuberculosis FolP1
